Laboratory results from US12458650B2, “Urination disorder-improving agent” (ASKA Pharmaceutical Co., Ltd., priority 2019, dated 2025).

Columns and labels:
[1] = tested on: model of a urination disorder associated with streptozocin-induced diabetes; assay: Test Example 6: urination disorder model associated with streptozocin-induced diabetes, compound A versus dutasteride; format: in vivo, rat
Protocol: As described below, a model of a urination disorder associated with streptozocin-induced diabetes was prepared as a urination disorder model in accordance with Test Example 4 to evaluate the effects of the compound A and the compound C on a urination disorder. This model has no benign prostatic hyperplasia and is a model of a urination disorder associated with neuropathy and smooth muscle contraction disorder.
The body weights of Rats (male, Crl:CD(SD), 5-week-old; Charles River Laboratories Japan, Inc.) were measured. On the basis of the body weight, the rats were grouped or divided into two (2) groups. The day after the rats were grouped, a fist group received intraperitoneal administration of a citrate buffer (pH 4.5) (10 mL/kg) having a concentration of 0.1 mmol/L, and a second group received intraperitoneal administration of streptozocin (STZ; Sigma-Aldrich) (50 mg/kg). Streptozocin (STZ) was administered in the form of a solution of streptozocin having a concentration of 5 mg/mL in the citrate buffer.
About one (1) week after streptozocin (STZ) was administered, the body weight and the fasting blood glucose were measured. In the streptozocin (STZ) administration group (the second group), individuals having a fasting blood glucose level of not less than 300 mg/dL were used as animals with induced diabetes. These animals with induced diabetes are a model having no abnormality of the prostate (having no benign prostatic hyperplasia). On the basis of the body weight and the fasting blood glucose level, the animals (models) with induced diabetes were grouped or divided into three (3) groups by randomized, multivariable block allocation.
To the three model groups with induced diabetes, a 0.5 v/v % Polysorbate 80 solution (0.5% P) (10 mL/kg), the compound A (3 mg/kg), and the compound C (dutasteride) (0.3 mg/kg) were orally administered, respectively, wherein the administration schedule in all groups was a frequency of once a day, only on weekdays, over four (4) weeks. Moreover, to the above-mentioned first group, a 0.5 v/v % Polysorbate 80 solution (0.5% P) (10 mL/kg) was orally administered in the same administration schedule (normal group). On the last day of administration, a cannula was inserted into and secured to the dome of the bladder under isoflurane anesthesia, and cystometry (Cystometogram, CMG) was conducted in the order of under awake condition and under urethane anesthesia to measure the intravesical pressure, the voided volume, and the residual urine volume. After the completion of the measurement, the blood was collected under deep isoflurane anesthesia, and then the prostate (ventral prostate, dorsolateral prostate) was extracted and each was weighed. Moreover, the blood glucose level in the collected blood was measured.
The test substances and the dosage in the test system (rats having the urination disorder associated with diabetes) are as follows. • Normal group: citrate buffer 10 mL/kg (intraperitoneal administration), 0.5% P 10 mL/kg (oral administration) (n=10) • Solvent group (control group): STZ 50 mg/kg (intraperitoneal administration), 0.5% P 10 mL/kg (oral administration) (n=10) • Group A3: STZ 50 mg/kg (intraperitoneal administration), Compound A 3 mg/kg (oral administration) (n=10) • Group C0.3: STZ 50 mg/kg (intraperitoneal administration), Compound C (dutasteride) 0.3 mg/kg (oral administration) (n=10)
Urination parameter: In the same manner as in Test Example 4, the residual urine volume (mL) and the urination efficiency % were determined as urination parameters in each urination, and the average value of two measurements was taken as a measured value of each individual.
Prostate weight: In the same manner as in Test Example 4, the weight of the prostate (ventral prostate, dorsolateral prostate, and whole) was converted to a tissue weight per 100 g of the body weight. […]

[2] = tested on: lower urinary tract obstruction model of rats; assay: Test Example 2: urination function in male rat lower urinary tract obstruction model (cystometry under no anesthesia); format: in vivo; settings: Group A: 10 mg/kg oral once a day, 14 days, in comparison with Group C (dutasteride 0.5 mg/kg), FIG. 7, 8
Description: A lower urinary tract obstruction model of rats was used as a test system. A test substance was orally administered to the lower urinary tract obstruction model repeatedly over 14 days to examine the action on the urination function in the lower urinary tract obstruction model. The lower urinary tract obstruction model is not a benign prostatic hyperplasia model with enlarged prostate.
More specifically, the rats (male, Crl:CD(SD), 8-week-old; Charles River Laboratories Japan, Inc.) were operated to form lower urinary tract obstruction and repeatedly received oral administration of the test substance at a frequency of once a day over 14 days. After the completion of the administration, each rat was subjected to bladder catheterization under anesthesia and cystometry under no anesthesia and was evaluated for the residual urine volume and the urination efficiency.
The test substances and the dosage in the test system (male rats with lower urinary tract obstruction) are as follows. • Solvent group (control group): 0.5 v/v % Polysorbate 80 solution, 10 mL/kg (n=8) • Group A: Compound A, 10 mg/kg (n=12) • Group C: Compound C (dutasteride), 0.5 mg/kg (n=11) • Dutasteride is a 5a reductase inhibitor.

[3] = tested on: lower urinary tract obstruction model of rats; assay: Test Example 1: urination function in female rat lower urinary tract obstruction model (cystometry, tissue wet weights, survival); format: in vivo; settings: Group A: 10 mg/kg oral once a day, 2 weeks
Description: A lower urinary tract obstruction model of rats was used as a test system. A test substance was orally administered to the lower urinary tract obstruction model repeatedly over two (2) weeks to examine the action on the urination function in the lower urinary tract obstruction model.
More specifically, the rats (female, Crl:CD(SD), 8-week-old; Charles River Laboratories Japan, Inc.) were operated to form lower urinary tract obstruction and repeatedly received oral administration of the test substance at a frequency of once a day over two (2) weeks. After the completion of the administration, each rat was subjected to bladder catheterization under anesthesia, cystometry under no anesthesia, then cystometry under urethane anesthesia, and euthanasia under deep anesthesia, and the tissues (bladder, kidney) of the rat were extracted or surgically removed. As a normal group, the rats without operation for forming lower urinary tract obstruction were used.
The test system, the test substances, and the dosage are as follows. • Normal group: 0.5 v/v. Polysorbate 80 solution, 10 mL/kg (n=6) • Solvent group (control group): 0.5 v/v % Polysorbate 80 solution, 10 mL/kg (n=15) • Group A: Compound A, 10 mg/kg (n=15) • Group B3: Compound B, 3 mg/kg (n=7) • Group B10: Compound B, 10 mg/kg (n=7)
The residual urine volume, the urination efficiency, and the bladder capacity were measured as follows.
After urination, the residual urine was aspirated from the outlet end of the catheter placed in the bladder to measure the volume (mL) of the residual urine.
After urination, the weight of the voided urine was measured to determine the voided volume (g=mL), and then the urination efficiency was calculated by the following equation: Urination efficiency (%)=[(Voided volume (mL))/(Voided volume (mL)+Residual urine volume (mL))]×100 [Bladder Capacity]
The bladder capacity was calculated from the voided volume and the residual urine volume by the following equation: Bladder capacity(mL)=Voided volume (mL)+Residual urine volume (mL)
Moreover, the wet weight of the extracted bladder and that of the extracted kidney were measured.

[4] = Group A3: 3 mg/kg oral, 4 weeks, relative to solvent group

For `CC(=O)O[C@]1(C(C)=O)C[C@@H](O)[C@H]2[C@@H]3C=C(Cl)C4=CC(=O)OC[C@]4(C)[C@H]3CC[C@@]21C` [Compound A, 17α-acetoxy-6-chloro-15β-hydroxy-2-oxa-4,6-pregnadiene-3,20-dione], the “therapeutic effect on diabetes (blood glucose level)” value ([1]; Group A3: 3 mg/kg oral, 4 weeks) was “no therapeutic effect on diabetes”, the “Dorsolateral prostate (atrophy rate)” value [1, 4] was “(40.2%)” and the “Ventral prostate (atrophy rate)” value [1, 4] was “(40.0%)”. For the same molecule, the “Whole prostate (atrophy rate)” value [1, 4] was “(40.1%)”, the residual urine volume ([1]; Group A3: 3 mg/kg, cystometry under awake condition, vs solvent group (p<0.05), FIG. 19) was “significantly decreased” and the urination efficiency ([1]; Group A3: 3 mg/kg, cystometry under awake condition, vs solvent group (p<0.05), FIG. 20) was “significantly improved”. The “bladder contraction force on urination by nomogram analysis” value ([1]; Group A3: 3 mg/kg, in comparison with the solvent group and Group C0.3, FIG. 21) was “strong bladder contraction force”, the “urination function (the residual urine volume, the urination efficiency)” value [2] was “strong improvement action” and the bladder wet weight ([3]; FIG. 4) was “significantly inhibiting the increase”. The kidney wet weight ([3]; FIG. 5) was “significantly inhibiting the increase”, the survival rate ([3]; FIG. 6) was “no decrease” and the residual urine volume ([3]; vs control (solvent) group, FIG. 1) was “significantly decreased”. The urination efficiency ([3]; vs control group, FIG. 2) was “increased” and the bladder capacity ([3]; vs control group, FIG. 3) was “significantly decreased”.
